Results reported in US8592451B2, “Reversible nondepolarizing neuromuscular blockade agents and methods for their use” (Cornell University, priority 2009, dated 2013).
Entries after “also recorded” stand apart in the source; their conditions may differ.

Assays:
[1] = tested on: twitch contractions of the extensor digitorum muscle; assay: Rhesus monkey anesthesia bioassay for potency and duration (substituent and stereochemical comparison, preliminary studies); type: in vivo; details: rhesus monkeys; for Potency (ED95 mg/kg): intravenously; for Potency (ED95 mg/kg) / Duration at 4X ED95 / Duration (minutes), from injection to 95% twitch recovery: preliminary studies; for Duration at 4X ED95: head prints no unit (column beside it: minutes); for Duration (minutes), from injection to 95% twitch recovery: dose not printed (beside ED95 column)
Protocol: Two stereoisomeric structures, CW 002 (R-trans, R-trans), and CW 003 (R-cis, R-cis) were tested in the rhesus monkey anesthesia bioassay for potency and duration. A third compound, CW 001 (R-trans, R-trans) bearing an additional methoxyl group on each of the two benzyl groups in the molecule, was also tested.
Rhesus monkeys were anesthetized with ketamine (7.5 mg/Kg) given intramuscularly or intravenously. Anesthesia was maintained with a mixture of isoflurane (1.5%), nitrous oxide (60%) and oxygen (40%). The common peroneal nerve was stimulated supramaximally with square wave pulses of 0.2 m sec duration at a rate of 0.15 Hz. Twitch contractions were recorded via the tendon of the extensor digitorum muscle.
In all animals, the trachea was intubated and ventilation was controlled at 12-15 ml/kg, 18-24 breaths per minute. A peripheral vein and artery were cannulated for drug administration and for recording of arterial pressure, respectively. In preliminary studies a neuromuscular blocking agent having one of the following structures was administered intravenously.

[2] = tested on: twitch of the extensor digitorum; assay: Reversal of neuromuscular blockade by L-cysteine or neostigmine in anesthetized rhesus monkeys; type: in vivo, rhesus monkeys (Macaca mulatta)
Protocol: A control dose of 0.15 mg/kg CW 002 was allowed to recover spontaneously to TOF 110-120%. A second dose was given 60 minutes later, followed one minute afterwards by either neostigmine (0.05 mg/kg+atropine 0.05 mg/kg) or L-cysteine (10, 20, 30 or 50 mg/kg). Total duration and 5-95% recovery intervals were compared during spontaneous recovery vs. antagonism by L-cysteine or reversal by neostigmine.
This series of paired comparisons was designed to generate dose-response data comparing spontaneous recovery of high doses of CW 011 (from 4 to 64× ED95) versus immediate antagonism at +1 min by an optimal dose of L-cysteine (50 mg/kg), previously determined during studies of immediate antagonism of CW 002. This experiment was done to explore the limits of chemical antagonism by L-cysteine of these olefinic diester neuromuscular blocking drugs, using CW 011 as a typical example with an intermediate duration of action. Five groups of animals first received a control dose of CW 011 at 4, 8, 16, 32 or 64× ED 95 (0.1 to 1.6 mg/kg). Sixty minutes after spontaneous recovery of the control dose to TOF 110-120%, the same dose was repeated, followed 1 min later by L-cysteine (50 mg/kg). Total duration of action and 5-95% recovery interval were compared during spontaneous recovery and following antagonism by L-cysteine
The reversal of neuromuscular blockade by cysteine (5-50 mg/kg i.v.) was studied. Reversal was tested as follows: full paralysis was induced by injection of a dose of approximately 2-6× ED 95 of the compound in question. After spontaneous recovery of this dose, a second identical dose was given 15-30 min later. Cysteine was then given at +1 min after injection of the neuromuscular blocking drug at a point where no twitch was apparent (“immediate reversal”) or at the beginning of recovery from neuromuscular blockade at two percent twitch height (“classical reversal”). Comparisons were made among compounds with respect to rapidity and ease of cysteine reversal, by comparing 5-95% recovery times, and total durations of action (injection to 95% twitch recovery). Spontaneous recovery was compared with cysteine-accelerated recovery. […]

[3] = L-cysteine adduction kinetics in vitro (HPLC); type: physicochemical; details: pH 7.4, 37° C.; for NMBA peak area / [NMBA] remaining / ln* = ln (([NMBA]t[L-cysteine]t=0)/([NMBA]t=0[L-cysteine]t)): CW 002 1000 μg/mL + 1.05 equiv. L-cysteine
Protocol: In a second experiment, to evaluate degradation in the presence of L-cysteine, buffered solutions (pH 7.4) of gantacurium, CW 002 or CW 011 were freshly prepared at 37° C. to give experimental concentrations of 1000 μg/mL (CW 002 and CW 011) and 200 μg/mL (gantacurium), after addition to and mixing with a 5% Molar excess of L-cysteine at time=0.
The concentration of neuromuscular blocking agent/parent compound remaining at specified time points after mixing was determined by high performance liquid chromatography. The concentration of blocking agent at each time point was determined from a separately prepared reaction mixture, due to the rapid rate of L-cysteine adduction. The reaction rate constant for the second order reaction of each neuromuscular blockade agent (NMBA) with L-cysteine was derived by plotting the natural log of ([NMBA]t[L-cysteine]t=0/[NMBA]t=0[L-cysteine]t) vs. time.
Concentrations selected were 200, 100 and 50 μg/ml which are approximately proportional to the relative potencies (ED 95) of gantacurium, CW 002 and CW 011 respectively. A degradation (adduction) pathway in the presence of L-cysteine for each of the three compounds was proposed.
The reaction of L-cysteine with CW 002, CW 011 or gantacurium is first order in the case of both the neuromuscular blockade agent (NMBA) and L-cysteine, represented by the rate equation (1). d[Adduct]/dt=−d[NMBA]/dt=ka[NMBA][L-cysteine] (1)
Calculation of the L-cysteine adduction half time requires experimental derivation of the reaction rate constant, ka, for each compound. The initial concentrations of NMBA and L-cysteine are unequal in the experiments conducted for this study, thus integration of equation 1 gives equation 2, where [NMBA]0 is the NMBA concentration at time equals 0 and [NMBA]t is the NMBA concentration at a time point, t.
[formula] A plot of the ln(([NMBA]t [L-cysteine]0)/([NMBA]0 [L-cysteine]t)) versus time (ln* vs. t) gives a line, with slope equal to ka([NMBA]0−[L-cysteine]0). An adduction reaction half time can be calculated by solving for ka to be used in equation 3.
NMBA standard solutions were prepared by a method similar to that used to prepare hydrolysis standards. The standards were prepared at 1000 μg/mL for CW 002 and CW 011 and 200 μg/mL for gantacurium.
Solutions used for determination of NMBA concentration at the reported times for CW 002 and CW 011 were prepared as follows: L-cysteine hydrochloride monohydrate was charged to a volumetric flask in de-ionized water. A 5 mL aliquot of the L-cysteine solution (1.05 equiv. L-cysteine with respect to NMBA) was transferred by volumetric pipette to a flask held at 37.0±0.3° C. CW 002 or CW 011 was then charged to a separate 25 mL volumetric flask and diluted to volume with pH 7.4 phosphate buffer at 37.0° C. The NMBA solution was then immediately transferred to the flask containing L-cysteine to give an initial NMBA concentration of 1000 μg/mL. Solutions used for determination of gantacurium concentration versus time were prepared in a similar manner to give an initial concentration of 200 μg/mL. T=0 was defined as the time of addition of NMBA solution to L-cysteine solution. The times listed in the results table show the point of HPLC sample injection following mixing of L-cysteine and NMBA at time=0 (Table 1, below).
Rate constants were calculated using equation (3) and the slope of the trend line derived from each data set. The strong linear correlation of the data within each set supports the use of second order kinetics for analysis of the cysteine adduction reactions.
Reaction half times were calculated using equation 4 and the experimentally determined rate constants. The initial NMBA concentrations were chosen to reflect the relative potency observed in vivo.

[4] = tested on: twitch of the extensor digitorum; assay: Neuromuscular blocking potency and duration in anesthetized rhesus monkeys; type: in vivo, rhesus monkeys (Macaca mulatta); details: for Duration (± SD/SEM), from injection to recovery of twitch to 95% of baseline: spontaneous recovery
Protocol: Experiments were approved by the Institutional Animal Care and Use Committee of Weill Medical College of Cornell University (New York, N.Y.) and of Albany Medical College (Albany, N.Y.), where the studies were conducted. A colony of 10 adult male monkeys (Macaca mulatta) weighing 8-18 kg was studied at ˜6 week intervals. Animals were housed and cared for in accordance with the Guide for Care and Use of Laboratory Animals (National Research Council, Washington, D.C.). They were fed a standard Old World monkey diet, enriched with fruits and vegetables, and other dietary novelties and were followed throughout the study to verify normal health by physical examination, body weight, and clinical laboratory studies (Complete Blood Count, Blood Urea Nitrogen and creatinine, and liver function tests).
On the day of each study, monkeys received ketamine (7-10 mg/kg i.m.) followed by tracheal intubation under topical anesthesia with 4% lidocaine. Ventilation was controlled at 10 mL/kg and 20 breaths/min with isoflurane (1.0-2.0%) and N2O/O2 (2:1 mixture). Ringers lactate was administered at ˜10 ml kg^−1 h^−1. Arterial pressure was monitored from a femoral, superficial tibial, or radial (22 gauge) cannula. Heart rate was measured by tachograph from the arterial pulse wave. Core temperature was kept at 36.5-38.0° C. by warming blankets. Electrocardiogram and pulse oximetry were monitored continuously.
Needle electrodes (25 gauge) transmitting square-wave pulses of 0.2 msec duration at supramaximal voltage which were generated by a Grass S-88 stimulator (Grass Instruments, Quincy, Mass.) were placed at the peroneal nerve at the knee to elicit twitch responses of the extensor digitorum of the foot at 0.15 Hz. A small slip (10-20%) of the tendon was dissected free under sterile technique and tied to a Grass FT 10 force transducer (Grass Instruments, Quincy, Mass.) at a baseline tension of 50 gm. Train-of four stimulation (TOF, 2 Hz for 2 sec) was interposed at appropriate points, especially 1-2 min prior to NMBA dosing and following recovery of twitch to 95% of baseline, where TOF was subsequently evaluated every 1-2 min.
Recordings of circulatory and neuromuscular data were made on a Grass 7B polygraph (Grass Instruments). A baseline period of 15-20 min was allowed for stabilization of recordings prior to dosing.^2
Dose-response curves for twitch blockade by gantacurium, CW 002, CW 011, cisatracurium, CW002-Cys, NB 938-69, NB 1064-81, NB 802-17 (CW 001), NB 832-65, and NB 1163-79, structures of which are all shown above, were generated as follows. […] Successive doses were separated by at least three estimated half lives beyond complete recovery of the previous dose to TOF of 110-120%, which is normal for these monkeys. Only the first one or two doses yielding 5 to 99% blockade were included from any single experiment for computation of dose-response data.
Comparative studies of spontaneous recovery versus antagonism/reversal were done at least 3 estimated half-lives following dose-response studies.
ED 50 and ED 95 were computed from the regression of log dose vs. the logit of percentage blockade of twitch.
CW002-Cys, the L-cysteine adduct of CW 002, was available in limited quantity and was administered in cumulative fashion to three animals to compare approximate potency and duration of effect versus its parent compound CW 002.

COc1ccc(C[C@@H]2c3cc(OC)c(OC)cc3CC[N@@+]2(C)CCCOC(=O)/C=C/C(=O)OCCC[N@+]2(C)CCc3cc(OC)c(OC)cc3[C@H]2Cc2ccc(OC)c(OC)c2)cc1OC [CW 002]
reversibility of effect by cysteine or glutathione [1]: reversible
Potency (ED95 mg/kg) [1]: 0.04 mg/kg
Duration at 4X ED95 [1]: 30-35
Duration (minutes), from injection to 95% twitch recovery [1]: 20 to 25 min
immediate antagonism of blockade by L-cysteine (FIG. 1B) ([2]; CW 002 0.15 mg/kg (~4× ED 95), L-cysteine 10, 20, 30 or 50 mg/kg at +1 min): dose-related acceleration of recovery
immediate antagonism of blockade by neostigmine (FIG. 1A) ([2]; CW 002 0.15 mg/kg (~4× ED 95), neostigmine 0.05 mg/kg + atropine 0.05 mg/kg at +1 min): not achieved significantly faster than the spontaneous reversal; also recorded: did not shorten recovery
time to reversal of blockade with cysteine (FIG. 1B) ([2]; CW 002 0.15 mg/kg, all cysteine concentrations tested (10 to 50 mg/kg)): less than 6 minutes
time from cysteine administration to beginning of reversal (FIG. 1B) ([2]; CW 002 0.15 mg/kg, higher cysteine doses): 2 to 3 min
time to spontaneous reversal of blockade (FIG. 1) ([2]; CW 002 0.15 mg/kg, no reversal agent): more than 12 minutes
reversibility of neuromuscular blockade by thiol compounds ([2]; cysteine (L or D) or glutathione): reversible
effect of neostigmine given immediately after the blocking drug ([2]; immediate reversal): ineffective
classical antagonism of neuromuscular blockade by neostigmine ([2]; neostigmine given at beginning of spontaneous recovery, e.g. at 2% twitch height): showed antagonism
NMBA peak area ([3]; Trial 1, 142 Sec): 2746.0 mAU's
[NMBA] remaining ([3]; Trial 1, 142 Sec): 224 µM
ln* = ln (([NMBA]t[L-cysteine]t=0)/([NMBA]t=0[L-cysteine]t)) ([3]; Trial 1, 142 Sec): −0.240
NMBA peak area ([3]; Trial 2, 170 Sec): 2350.7 mAU's
[NMBA] remaining ([3]; Trial 2, 170 Sec): 192 µM
ln* = ln (([NMBA]t[L-cysteine]t=0)/([NMBA]t=0[L-cysteine]t)) ([3]; Trial 2, 170 Sec): −0.277
NMBA peak area ([3]; Trial 3, 188 Sec): 2237.9 mAU's
[NMBA] remaining ([3]; Trial 3, 188 Sec): 183 µM
ln* = ln (([NMBA]t[L-cysteine]t=0)/([NMBA]t=0[L-cysteine]t)) ([3]; Trial 3, 188 Sec): −0.297
Plot Slope (ln* vs. time) ([3]; L-cysteine adduction, data of Table 1): −0.0012
ka, second order rate constant of L-cysteine adduction [3]: 14.3 M⁻¹ s⁻¹
half-life at 100 μg/ml ([3]; pH 7.4 phosphate buffer with L-cysteine, calculated at [NMBA]0 0.000102 M (100 μg/ml), read-out: L-cysteine adduction reaction half time t1/2): 11.4 min

COc1cc2c(cc1OC)[C@@H](Cc1cc(OC)c(OC)c(OC)c1)[N@+](C)(CCCOC(=O)/C=C/C(=O)OCCC[N@+]1(C)CCc3cc(OC)c(OC)cc3[C@H]1Cc1cc(OC)c(OC)c(OC)c1)CC2 [NB 802-17]
reversibility of effect by cysteine or glutathione [1]: reversible
Potency (ED95 mg/kg) [1]: 0.04 mg/kg
Duration at 4X ED95 [1]: 50-60
Duration (minutes), from injection to 95% twitch recovery [1]: 30 to 40 min
Duration (± SD/SEM), from injection to recovery of twitch to 95% of baseline ([4]; administered dose 0.03 mg/kg): 35.0 ± 15.0 min
Duration (± SD/SEM), from injection to recovery of twitch to 95% of baseline ([4]; administered dose 0.10 mg/kg): 49.4 ± 5.8 min
ED 95 (± SD/SEM) ([4]; twitch blockade, monkeys under isoflurane, twitch at 0.15 Hz, calculated from dose-response curve): 0.033 ± 0.005 mg/kg
